Biological target: NfnB (PpNfnB) (Pseudomonas putida, UniProt Q88K59)
Assay: nitroreduction, HPLC-ICP-MS
Assay type: biochemical
Conditions: 4 uM substrate, 1 uM enzyme, 0.2 mM NADPH, 25 uM FMN, pH 7.0, 37 °C

## O=[N+]([O-])c1ccc([As](=O)(O)O)cc1 [Nit(V), 4-nitrophenylarsonic acid]
  nitroreduction, HPLC-ICP-MS: NfnB also reduces Nit(V) to p-ASA(V)
